Reference: patent US7312248B2, “Control of parasites in animals by the use of novel trifluoromethanesulfonanilide oxime ether derivatives” (Schering-Plough Animal Health Corporation, priority 2004, dated 2007)
Where two headings read alike, the source gives them in different places.

Legend:
Type in all cases: in vivo
[1] = system: Brown Dog Tick (Rhipicephalus sanguineus); test: Rapid screening protocol for topical application on brown dog ticks; details: for R. sanguineus Mortality (%) 48 h: Laboratory 2 F data; for Rhipicephalus sanguineus Mortality (%) 24 h: 10 μg of active per tick in 1 μL acetone, adult ticks, Laboratory 1 E data
Experimental: d) Rapid Screening Protocol for Topical Application on Brown Dog Ticks (Rhipicephalus sanguineus)
The aim of the test was to determine the presence of significant acaricidal activity in sample compounds or formulations when applied topically on brown dog ticks. A tick was defined as dead if it gave no apparent response when touched lightly and observed for 1 minute. […] Both permethrin and fipronil were employed as reference compounds. The insect species tested was the Brown Dog Tick (Rhipicephalus sanguineus). Mixed sex adult ticks were used for tests. The strain used was cultured by von Berky Veterinary Services, Woody Point, QLD, AU and supplied as unfed adult ticks (mixed sex). Ticks were maintained in controlled conditions (temp. 18°+2° C., humidity 75±5% RH).
Temperature was maintained at 25±1° C. and the humidity was ambient. […] Ticks were each treated on the abdomen with 1 μL of a single dose level of test sample in acetone; ten ticks were treated with solvent only (acetone) in each test. Tests were replicated 4 times (total of 40 ticks treated). […]

[2] = system: cat flea (Ctenocephalides felis); test: whole plant or invertebrate; details: Ctenocephalides felis
Outline: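 Single-dose screen at 1.26 μg/cm^2: acetone solution dried for 24 h on a Coatasil-treated 159 mm^2 flask base, then 15 adult cat fleas aged 3-7 days per flask, four or more replicates, acetone control. Percent dead, meaning not moving or unable to right themselves, recorded after 8, 24 and/or 48 h at 25 °C and 75% RH.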

[3] = system: cat flea (Ctenocephalides felis); test: Ctenocephalides felis adulticide assay: dose response (LC50); details: Laboratory 1 C data
Text: c) Ctenocephalides felis Adulticide Assay: C. felis Dose Response
The purpose of this example was to determine the LC50 when cat fleas were contacted with a glass surface treated with sample compounds or formulations prepared as described above. Mortality of fleas was defined as follows: fleas were considered dead if they didn't move or were on their sides and unable to walk or right themselves. LC50: Lethal Concentration 50—concentration of glass surface treatment at which 50% of the cat fleas were killed. The test species was the cat flea (Ctenocephalides felis). The strain used was obtained from external suppliers as pupae and held in the laboratory under testing conditions until the adults had emerged. Fifteen (15) fleas were used in a minimum of four replicates for each dose level (total of 60 fleas per dose level). The insects were selected to be in the adult life stage, aged between 3 and 7 days post emergence.
The compounds to be tested were dissolved in acetone just prior to testing. Samples of compounds were stored in a refrigerator (5±1° C.) unless otherwise specified. During the mortality testing, the temperature was maintained at 25+1° C. Humidity was maintained at 75±5%. The base (area=159 mm^2) of a 100 mL glass Erlenmeyer (conical) flask provided the treatment surface. Flasks were pretreated with Coatasil™ glass treatment to maximise bio-availability of test compounds by preventing them from binding to the glass surface.
Six dose levels (concentrations) of test sample, in the form of a serial dilution, were derived from a pilot study and covered a range that produced very low to very high mortality. The base of the 100 mL Erlenmeyer flask was treated with 0.5 mL of test sample in acetone and gently swirled. This volume was sufficient to cover the base of the flask. Flasks were left to dry for 24 hours before flea exposure. Adult cat fleas were lightly anaesthetised by cooling and then placed into a sorting chamber, which allowed fleas to revive and jump into the Erlenmeyer flasks. Fifteen (15)adult cat fleas were collected in each flask. The top of the flasks were then covered in Parafilm™ and small holes made to allow gas exchange. A 0.5 mL volume of acetone was applied to the base of an Erlenmeyer flask and the testing proceeded in the same manner described above. Cat fleas in the treatment containers were held under testing conditions for 24 hours. Mortality resulting from the treatments was recorded at 8 and 24 hours.

[4] = 8 h, read-out: C. felis Mortality (%) 8 h, 8 h, Laboratory 2 B data
[5] = 24 h, read-out: C. felis Mortality (%) 24 h, 24 h, Laboratory 2 B data
[6] = 8 h, read-out: Ctenocephalides felis Mortality (%) 8 h
[7] = 24 h, read-out: Ctenocephalides felis Mortality (%) 24 h
[8] = 48 h, read-out: Ctenocephalides felis Mortality (%) 48 h

SMILES	R. sanguineus Mortality (%) 48 h [1] [%]	mortality at 1.26 µg/cm2, 1.26 µg/cm2 [2, 4] [%]	mortality at 1.26 µg/cm2, 1.26 µg/cm2 [2, 5] [%]	further results
CC/C(=N\OCc1ccccn1)c1cc(Cl)ccc1NS(=O)(=O)C(F)(F)F [Compound 204]	87	100	100	–
CCCCc1cc(-c2cc(Cl)ccc2NS(=O)(=O)C(F)(F)F)no1 [Compound 291]	–	–	–	Rhipicephalus sanguineus Mortality (%) 24 h ([1]; 24 h, topical): 67%; mortality at 1.26 µg/cm2 [2, 6]: 91%; mortality at 1.26 µg/cm2 [2, 7]: 100%
O=S(=O)(Nc1ccc(Cl)cc1/C(=N/OCC1CCCCC1)C1CCCCC1)C(F)(F)F [Compound 209]	22	38	93	–
CC/C(=N\OC(C)c1ccc(Cl)cc1)c1cc(Cl)ccc1NS(=O)(=O)C(F)(F)F (stereo not drawn) [Compound 257]	–	5	96	mortality at 5 µg/tick ([1]; Rhipicephalus sanguineus, topical, 24 h, read-out: R. sanguineus Mortality (%) 24 h): 40%
CC/C(=N\OCc1ccc(C(F)(F)F)cc1)c1ccc(C(F)(F)F)cc1NS(=O)(=O)C(F)(F)F [Compound 221]	67	44	100	–
CC/C(=N\OCc1cccnc1)c1cc(Cl)ccc1NS(=O)(=O)C(F)(F)F [Compound 206]	52	97	100	–
CC/C(=N\OCc1ccc(Cl)cc1)c1ccc(C(F)(F)F)cc1NS(=O)(=O)C(F)(F)F [Compound 220]	62	54	100	–
C/C(=N\OCc1cccs1)c1cc(Cl)ccc1NS(=O)(=O)C(F)(F)F [Compound 190]	75	98	100	–
C/C(=N\Oc1ccc(Cl)cc1)c1ccc(C(F)(F)F)cc1NS(=O)(=O)C(F)(F)F [Compound 199, N-{2-[1-(4-chlorophenoxyimino)ethyl]-5-trifluoromethylphenyl}trifluoromethanesulfonamide]	5	82	100	–
CCOCN(c1ccc(Cl)cc1/C(CC)=N/OCc1ccc(Cl)cc1)S(=O)(=O)C(F)(F)F [Compound 302]	–	–	–	Rhipicephalus sanguineus Mortality (%) 24 h ([1]; 24 h, topical): 5%; mortality at 1.26 µg/cm2 [2, 7]: 3%; mortality at 1.26 µg/cm2 [2, 8]: 82%
CC/C(=N\OCC1CCCCC1)c1ccc(C(F)(F)F)cc1NS(=O)(=O)C(F)(F)F [Compound 222]	32	27	96	–
C/C(=N\Oc1ccc(F)cc1)c1ccc(C(F)(F)F)cc1NS(=O)(=O)C(F)(F)F [Compound 200, N-{2-[1-(4-fluorophenoxyimino)ethyl]-5-trifluoromethylphenyl}trifluoromethanesulfonamide]	17	93	100	–
O=S(=O)(Nc1ccc(Cl)cc1-c1ccon1)C(F)(F)F [Compound 293]	–	–	–	Rhipicephalus sanguineus Mortality (%) 24 h ([1]; 24 h, topical): 80%; mortality at 1.26 µg/cm2 [2, 6]: 60%; mortality at 1.26 µg/cm2 [2, 7]: 100%
CC(C)/C(=N\Oc1ccc(F)cc1)c1cc(Cl)ccc1NS(=O)(=O)C(F)(F)F [Compound 216]	72	97	100	–
CC/C(=N\Oc1ccc(Cl)cc1)c1ccc(C(F)(F)F)cc1NS(=O)(=O)C(F)(F)F [Compound 201]	22	85	100	–
CC/C(=N\OCc1ccc(Cl)cc1)c1cc(Cl)ccc1N(C(C)=O)S(=O)(=O)C(F)(F)F [Compound 307, N-acetyl-N-{4-chloro-2-[1-(4-chlorobenzyloxyimino)propyl]phenyl}trifluoromethanesulfonamide]	–	–	–	Rhipicephalus sanguineus Mortality (%) 24 h ([1]; 24 h, topical): 5%; mortality at 1.26 µg/cm2 [2, 7]: 10%; mortality at 1.26 µg/cm2 [2, 8]: 98%
CC/C(=N\OCC(F)(F)F)c1cc(Cl)ccc1NS(=O)(=O)C(F)(F)F [Compound 184]	92	100	100	–
CCC/C(=N\OC1CCCC1)c1cc(Cl)ccc1NS(=O)(=O)C(F)(F)F [Compound 195]	97	33	100	–
CCO/N=C(/c1cc(Cl)ccc1NS(=O)(=O)C(F)(F)F)C1CCCCC1 [Compound 213]	90	53	100	–
CCO/N=C(\c1ccccc1)c1cc(Cl)ccc1NS(=O)(=O)C(F)(F)F [Compound 178, N-[4-chloro-2-(ethoxyiminophenylmethyl)phenyl]trifluoromethanesulfonamide]	85	–	–	mortality at 1.26 µg/cm2, 1.26 µg/cm2 ([2]; 24 h, read-out: C. felis Mortality (%) 24 h, 24 h, Laboratory 1 A data): 96%; C. felis LC50 [3]: 0.3 μg/cm^2
C/C(=N\OCc1cccnc1)c1cc(Cl)ccc1NS(=O)(=O)C(F)(F)F [Compound 188]	40	98	98	–
CCOC(=O)N(c1ccc(Cl)cc1/C(C)=N/Oc1ccc(F)cc1)S(=O)(=O)C(F)(F)F [Compound 310, N-carbonylethoxy-N-{4-chloro-2-[1-(4-fluorophenoxyimino)ethyl]phenyl}trifluoromethanesulfonamide]	–	–	–	Rhipicephalus sanguineus Mortality (%) 24 h ([1]; 24 h, topical): 52%; mortality at 1.26 µg/cm2 ([2]; 8 h, single concentration 1.26 μg/cm^2 on treated glass, adult fleas, Laboratory 2 B data, read-out: Ctenocephalides felis Mortality (%) 8 h): 56%; mortality at 1.26 µg/cm2 ([2]; 24 h, single concentration 1.26 μg/cm^2 on treated glass, adult fleas, Laboratory 2 B data, read-out: Ctenocephalides felis Mortality (%) 24 h): 100%
CCC/C(=N\OC(C)C)c1cc(Cl)ccc1NS(=O)(=O)C(F)(F)F [Compound 191]	92	52	100	–
CC/C(=N\OCCOC)c1cc(Cl)ccc1NS(=O)(=O)C(F)(F)F [Compound 183]	100	100	100	–
C/C(=N\OCc1ccc(Cl)cc1)c1ccc(C(F)(F)F)cc1NS(=O)(=O)C(F)(F)F [Compound 218]	75	90	100	–
CC(C)(C)/C(=N\Oc1ccc(F)cc1)c1cc(Cl)ccc1NS(=O)(=O)C(F)(F)F [Compound 198, N-{4-chloro-2-[1-(4-fluorophenoxyimino)2,2-dimethylpropyl]phenyl}trifluoromethanesulfonamide]	35	16	92	–
CC/C(=N\OCc1ccc(Cl)cc1)c1cc(Cl)ccc1N(COC(=O)C(C)(C)C)S(=O)(=O)C(F)(F)F [Compound 303]	–	–	–	Rhipicephalus sanguineus Mortality (%) 24 h ([1]; 24 h, topical): 2%; mortality at 1.26 µg/cm2 [2, 7]: 0%; mortality at 1.26 µg/cm2 [2, 8]: 76%
